Results as given in article PMC6792352, “Limited Chemical Structural Diversity Found to Modulate Thyroid Hormone Receptor in the Tox21 Chemical Library” (Environmental Health Perspectives, 2019).
Structures can show the parent of a compound that is named as a salt.

Experiment: in vitro
Conditions: rat, gh3-tre-luc cells, AC50 (uM) modified / 1000

SMILES | CC50 at 24 h
O=[N+]([O-])c1cccc(Cl)c1Cl [2,3-Dichloronitrobenzene] | > 90 µM
O=C(O)COC(=O)Cc1ccccc1Nc1c(Cl)cccc1Cl [Aceclofenac] | > 20 µM
Nc1nc(-c2ccc([N+](=O)[O-])cc2)cs1 [2-Amino-4-(p-nitrophenyl)thiazole] | > 90 µM
CC1=CC[C@@]23C[C@@H]1C(C)(C)[C@@H]2CC[C@H]3C [(-)-alpha-Cedrene] | > 90 µM
O=C(c1ccccc1)c1ccc(O)cc1 [4-Hydroxybenzophenone] | > 90 µM
CCCN1CCC[C@@H]2Cc3n[nH]cc3C[C@H]21 [(-)-Quinpirole hydrochloride] | > 50 µM
Brc1ccc(-c2ccccc2)cc1 [4-Bromobiphenyl] | > 90 µM
CCOC(=O)N(C)N=O [N-Nitroso-N-methylurethane] | > 90 µM
OCC(O)CN1CCN(c2ccccc2)CC1 (stereo not shown) [Dropropizine] | > 50 µM
Cc1cccc(C)c1N(CCCc1cccnc1)C(=O)C(C)N (stereo not shown) [Ro 22-9194] | > 50 µM
CCCCOCCOC(=O)COc1ccc(Cl)cc1Cl [2,4-D-Butotyl] | > 90 µM
C[N+](C)=CCl [N-(Chloromethylidene)-N-methylmethanaminium chloride] | > 90 µM
COc1ccc(C(=O)N2CCCC2=O)cc1 [Aniracetam] | > 50 µM
COc1ccc(-c2ccc3cc(C(=O)O)ccc3c2)cc1[C@]12C[C@H]3C[C@H](C[C@H](C3)C1)C2 [Adapalene] | 1.88 µM
CN1C[C@@H]2C[C@H]1CN2c1cc2c(cc1F)c(=O)c(C(=O)O)cn2C1CC1 [Danofloxacin] | > 50 µM
Cc1cc(Cl)ccc1OCC(=O)O [MCPA] | > 90 µM
CCCCN(CCO)CCO [N-Butyldiethanolamine] | > 90 µM
CC1CCC(CO)CC1 (stereo not shown) [4-Methylcyclohexanemethanol] | > 90 µM
CCCCCCCCCCCCN1CCCCCC1=O [Laurocapram] | 45.3 µM
Cc1cccc2nccnc12 [5-Methylquinoxaline] | > 90 µM
C#C[C@]1(OC(C)=O)CC[C@H]2[C@@H]3CCC4=CC(=NO)CC[C@@H]4[C@H]3CC[C@@]21CC (mixture of isomers) [Norgestimate] | 30.6 µM
C=CCn1c(=O)n([C@@H]2O[C@H](CO)[C@@H](O)[C@H]2O)c2nc(N)[nH]c(=O)c21 [Loxoribine] | > 50 µM
c1ccc2c(c1)OCC(C1=NCCN1)O2 (stereo not shown) [Idazoxan] | 7.8 µM
O=S(=O)(c1ccc(O)cc1)c1ccc(O)cc1 [4,4'-Sulfonyldiphenol] | > 90 µM

SMILES | CC50 at 24 h
N#CCCNCCC#N [3,3'-Iminobispropanenitrile] | > 100 µM
C[C@H](O)[C@H](O)[C@H]1CNc2nc(N)[nH]c(=O)c2N1 [(6R)-Tetrahydrobiopterin dihydrochloride] | > 50 µM
CCC(=O)OCCC(C)CCC=C(C)C (stereo not shown) [Citronellyl propionate] | > 90 µM
NC1CCN(c2nc3c(cc2F)c(=O)c(C(=O)O)cn3-c2ccc(F)cc2F)C1 (stereo not shown) [Tosufloxacin toluenesulfonic acid] | > 50 µM
Nc1cc(Cl)ccc1O [2-Amino-4-chlorophenol] | 30.7 µM
CCN(CC)C(=O)SCc1ccc(Cl)cc1 [Thiobencarb] | > 90 µM
Cc1ccc(C(=O)c2cc(O)c(O)c([N+](=O)[O-])c2)cc1 [Tolcapone] | 72.4 µM
CCn1cc(C(=O)O)c(=O)c2cc3c(cc21)OCO3 [Oxolinic acid] | > 90 µM
CCC[C@@H]1C[C@@H](C(=O)N[C@@H]([C@H]2O[C@H](SC)[C@H](OP(=O)(O)O)[C@@H](O)[C@H]2O)[C@H](C)Cl)N(C)C1 [Clindamycin phosphate] | > 50 µM
CC(C)(C)C(O)C(Oc1ccc(Cl)cc1)n1cncn1 (stereo not shown) [Triadimenol] | > 90 µM
CCCCCBr [1-Bromopentane] | > 100 µM
COc1nc(C)nc(N)n1 [2-Methyl-4-amino-6-methoxy-s-triazine] | > 90 µM
CN1C[C@H](C(=O)N[C@]2(C)O[C@@]3(O)[C@@H]4CCCN4C(=O)[C@H](Cc4ccccc4)N3C2=O)C[C@@H]2c3cccc4[nH]cc(c34)C[C@H]21 [Dihydroergotamine] | 19.3 µM
CNC1CCCN(c2c(F)cc3c(=O)c(C(=O)O)cn(C4CC4)c3c2OC)C1 (stereo not shown) [Balofloxacin] | > 50 µM
NC[C@@H]1O[C@H](O[C@H]2[C@@H](O)[C@H](O[C@@H]3[C@@H](O)[C@H](N)C[C@H](N)[C@H]3O[C@H]3O[C@H](CO)[C@@H](O)[C@H](O)[C@H]3N)O[C@@H]2CO)[C@H](N)[C@@H](O)[C@@H]1O [Paromomycin sulfate] | > 50 µM
CC(C)CCCCCOC(=O)CCCOc1ccc(Cl)cc1Cl [2,4-DB-isooctyl ester] | > 90 µM
CC(C)c1ccc(C#N)cc1 [4-Isopropylbenzonitrile] | > 90 µM
O=C(O)CCC(=O)Nc1ccc(S(=O)(=O)Nc2nccs2)cc1 [Succinylsulfathiazole] | > 20 µM
O=[N+]([O-])c1ccccc1CCO [2-(2-Nitrophenyl)ethanol] | > 90 µM
COC(=O)C(C)N(C(=O)Cc1ccccc1)c1c(C)cccc1C (stereo not shown) [Benalaxyl] | > 90 µM
CCCCCCCCCCCCCC=O [Tetradecanal] | > 5 µM
O=C(O)c1cc(=O)c2c(OCC(O)COc3cccc4oc(C(=O)O)cc(=O)c34)cccc2o1 [Cromolyn sodium] | > 50 µM
N#CS [Potassium thiocyanate] | > 90 µM
CCSc1ccc2c(c1)N(CCCN1CCN(C)CC1)c1ccccc1S2 [Thiethylperazine malate] | > 20 µM

SMILES | CC50 at 24 h
C=CCN1C(=O)C(CC(C)C)NC1=S (stereo not shown) [Albutoin] | > 50 µM
COC(=O)NN [Methyl carbazate] | > 90 µM
ClCc1cccnc1 [3-(Chloromethyl)pyridine hydrochloride] | > 90 µM
O=C(O)c1cc(O)c2ccccc2c1O [1,4-Dihydroxy-2-naphthoic acid] | 12.2 µM
C/C(C=O)=C\c1ccccc1 [2-Methylcinnamic aldehyde] | > 90 µM
COc1ccc(CN(CCN(C)C)c2ncccn2)cc1 [Thonzylamine hydrochloride] | > 50 µM
CC(=O)OCC1=C(C(=O)O)N2C(=O)[C@@H](NC(=O)Cc3cccs3)[C@H]2SC1 [Cephalothin] | > 50 µM
CCCCOCC1CO1 (stereo not shown) [Butyl glycidyl ether] | > 90 µM
Cc1cccc2sc3nncn3c12 [2,7,8,9-Tricyclazole] | > 90 µM
CCCCOC(=O)CC#N [Butyl cyanoacetate] | > 100 µM
CCCCCCCCCCCC(=O)OCC(O)CO (stereo not shown) [1-Monolaurin] | > 90 µM
CCCCCCCCCCCCc1ccccc1 [Dodecylbenzene] | > 90 µM
CCCCOC(=O)[C@H](C)O [Butyl (2S)-2-hydroxypropanoate] | > 90 µM
CCCOC(=O)c1ccc(C(=O)OCCC)nc1 [Dipropyl 2,5-pyridinedicarboxylate] | > 90 µM
CCOCCC(=O)OCC [Ethyl 3-ethoxypropionate] | > 100 µM
NC(=O)c1cn(Cc2c(F)cccc2F)nn1 [Rufinamide] | > 50 µM
O=c1c(O)c(O)c1=O [Squaric acid] | > 90 µM
CC(=O)c1ccc2c(c1)Cc1ccccc1-2 [2-Acetylfluorene] | > 90 µM
CC(=O)O[C@@H]1C[C@@H]2CC[C@@]1(C)C2(C)C [Bornyl acetate] | > 90 µM
C[C@H]1C(=O)O[C@@H]2CCN3CC=C(COC(=O)[C@](C)(O)[C@]1(C)O)[C@H]23 [Monocrotaline] | > 90 µM
CC[N+](C)(C)Cc1ccccc1Br [Bretylium tosylate] | > 20 µM
CCC(C(=O)NC(=O)NC(C)=O)c1ccccc1 (stereo not shown) [Acetylpheneturide] | > 50 µM
CC(C)c1ccc(NC(=O)N(C)C)cc1 [Isoproturon] | > 90 µM
O=C(c1ccccc1)C1CCCCC1 [Cyclohexylphenylketone] | > 90 µM

Same assay, conditions: rat, gh3-tre-luc cells, AC50 (uM) modified / 1000, Tox21_110001=Tox21_110110; viability, 1 nM T3 present, 24 h

SMILES | CC50 at 24 h
Clc1cccc(N2CCNCC2)c1 [1-(3-Chlorophenyl)piperazine] | > 50 µM

Same assay, conditions: rat, gh3-tre-luc cells, AC50 (uM) modified / 1000, Tox21_110001=Tox21_112760; viability, 1 nM T3 present, 24 h

SMILES | CC50 at 24 h
C[C@]12CC[C@H]3[C@@H](CCC4=C(O)C(=O)CC[C@@H]43)[C@@H]1CC[C@@H]2OC(=O)CCC1CCCC1 [Oxabolone cipioncate] | > 50 µM

Same assay, conditions: rat, gh3-tre-luc cells, AC50 (uM) modified / 1000, Tox21_110001=Tox21_113313; viability, 1 nM T3 present, 24 h

SMILES | CC50 at 24 h
O=C(O)CCCCCCNC1c2ccccc2CCc2ccccc21 [Amineptine] | > 50 µM

Same assay, conditions: rat, gh3-tre-luc cells, AC50 (uM) modified / 1000, Tox21_110001=Tox21_200283; viability, 1 nM T3 present, 24 h

SMILES | CC50 at 24 h
O=NN(CCO)CCO [N-Nitrosodiethanolamine] | > 90 µM

Same assay, conditions: rat, gh3-tre-luc cells, AC50 (uM) modified / 1000, Tox21_110001=Tox21_201194; viability, 1 nM T3 present, 24 h

SMILES | CC50 at 24 h
CNNC [1,2-Dimethylhydrazine dihydrochloride] | > 90 µM

Same assay, conditions: rat, gh3-tre-luc cells, AC50 (uM) modified / 1000, Tox21_110001=Tox21_201657; viability, 1 nM T3 present, 24 h

SMILES | CC50 at 24 h
COC(=O)c1ccccc1N [Methyl 2-aminobenzoate] | > 90 µM

Same assay, conditions: rat, gh3-tre-luc cells, AC50 (uM) modified / 1000, Tox21_110001=Tox21_301263; viability, 1 nM T3 present, 24 h

SMILES | CC50 at 24 h
CCCCN(CCCCO)N=O [Butyl-N-(4-hydroxybutyl)nitrosamine] | > 90 µM

Same assay, conditions: rat, gh3-tre-luc cells, AC50 (uM) modified / 1000, Tox21_110001=Tox21_301748; viability, 1 nM T3 present, 24 h

SMILES | CC50 at 24 h
CN(C)C(=O)Nc1cccc(OC(=O)NC(C)(C)C)c1 [Karbutilate] | > 90 µM

Same assay, conditions: rat, gh3-tre-luc cells, AC50 (uM) modified / 1000, Tox21_110001=Tox21_301751; viability, 1 nM T3 present, 24 h

SMILES | CC50 at 24 h
COP(=O)(OC)O/C(=C\Cl)c1cc(Cl)c(Cl)cc1Cl [Z-Tetrachlorvinphos] | > 90 µM

Same assay, conditions: rat, gh3-tre-luc cells, AC50 (uM) modified / 1000, Tox21_110001=Tox21_302216; viability, 1 nM T3 present, 24 h

SMILES | CC50 at 24 h
CCOC(=O)COc1ccc(Cl)cc1Cl [2,4-D-ethyl ester] | > 90 µM
